≈ marks a conversion by molar mass, not a printed value. Where two headings read alike, the source gives them in different places.
Assays:
[1] = test system: tobacco cutworm (Prodenia litura); assay: Utility Example-5: spray on soy bean leaves, tobacco cutworm larvae; type: in vivo; details: 48 h, 2 days
Experimental: An acetone solution of one of the test compounds as mentioned in Table 13 and Tween-20 (the same surfactant as mentioned hereinbefore) was prepared. This acetone solution was diluted with water to prepare a solution containing the test compound in a predetermined concentration. Leaves of soy bean in pots were sprayed with the above diluted solution at the rate of 20 ml/pot and, after one day, ten 3-instar larvae of tobacco cutworm (Prodenia litura) were released on the leaves. The pots were kept in a constant-temperature chamber at 25° C.

[2] = Toxicity test with water-fleas; type: in vivo, Daphnia pulex; details: water, 25±1° C., read-out: TLm, Water-flea (6 hrs.)
Experimental: Toxicity test with water-fleas (Daphnia pulex)
An acetone solution of one of the test compounds as mentioned in Table 10 and Tween-20 (the same surfactant as mentioned hereinbefore) was prepared. To 100 ml of water in a high-walled dish (9 cm in diameter, 7 cm deep) was added the above acetone solution. The mixture was stirred thoroughly to prepare an aqueous solution containing the test compound in a predetermined concentration. This was used as a test water. Twenty water-fleas (Daphnia pulex) were released into each test water which was maintained at 25±1° C. After 6 hours, the water-fleas were examined for deaths. The TLm (median tolerance limit, ppm) was determined.

[3] = Fish toxicity safety factor (TLm divided by maximum concentration in cover water); parameters: species or system carp; details: in vivo, TLm / maximum concentration in cover water at LC50 application (100 l per 10 ares, 5 cm depth)
Experimental: To further confirm the low toxicity to fish and high pesticidal activity of Compounds (1) and (2) according to this invention as evidenced by the fish toxicity tests with carps and the above tests, fish toxicity safety factors were calculated from the fish toxicity and pesticidal test data. These fish toxicity safety factors are indicators of safety to fish inhabiting a paddy field to which Compounds (1) and (2) may be actually applied for pest control purposes.
It is first assumed that such a pesticidal solution would normally be applied at the rate of 100 l per 10 ares of paddy field. It is also assumed that a solution (100 l) corresponding to the LC50 of the compounds would be applied to 10 ares of a paddy field carrying a cover water with a depth of 5 cm above ground surface and that all the solution would then find its way into the cover water. The expected maximum concentration of the compound in the cover water is then calculated. The fish toxicity safety factor of a pesticidal compound is defined as the value obtained by dividing the TLm (ppm) of the particular compound by the maximum concentration of the compound in cover water. The meaning of the value of the fish toxicity safety factor being one (1) is that the maximum concentration of the particular compound in cover water corresponds to the TLm of said compound. It is understood that when the pesticidal compound having a fish toxicity safety factor value of less than one (1) is applied to a paddy field, it has a risk of destroying the fish inhabiting there, and that the higher the safety factor value, the higher is the safety of the compound to fish.
This fish toxicity safety factor will now be explained in further detailed by taking the trans-isomer of Compound (2) of this invention as an example.
On the other hand, the toxicity to fish of this compound is TLm >10 ppm. Therefore, by dividing the TLm (i.e. >10 ppm) by the above cover water maximum concentration (i.e. 0.36 ppm), we obtain a fish toxicity safety factor of >28. Thus, the concentration of the trans-isomerof Compound (2) which kills 50% of pests corresponds to less than 1/28 of the concentration of the same isomer which kills 50% of fish. In other words, this means that the trans-isomer of Compound (2) is extremely safe to fish.

[4] = Fish toxicity test with carp; type: in vivo, Cyprinus carpio L; details: carp, water, 48 hrs., 21±1° C.; read-out: TLm, Carp (48 hrs.)
Experimental: Fish toxicity test with carp (Cyprinus carpio L)
An acetone solution of one of the test compounds as mentioned in Table 10 and Tween-20 (the same surfactant as mentioned hereinbefore) was prepared. To 50 liters of water (30 cm deep) in a glass tank was added the above acetone solution. The mixture was stirred thoroughly to prepare an aqueous solution containing the test compound in a predetermined concentration. This was used as a test water. Five carps (Cyprinus carpio L) with a body weight of about 6 g and a body length of about 6 cm were released into each test water which was maintained at 21±1° C. After 48 hours, the test fish was examined for death. The TLm (median tolerance limit, ppm) was determined. The test water was moderately aerated.

[5] = test system: brown planthoppers (Nilaparvata lugens Stal); assay: Utility Example-1: LC50 on adult brown planthoppers on dipped rice plants; type: in vivo; details: Nilaparvata lugens, 24 h, 25° C., read-out: Pesticidal activity LC50
Experimental: A 1% emulsifiable concentrate of each test compound as prepared by the procedure described in Formulation Example 2 was diluted with water to prepare a test solution of predetermined concentration.
Rice plants, 4 weeks after sowing (cultivated in a pot 6 cm in diameter, 7 seedlings) were dipped in the above solution and after allowing them to dry in the air, the pot was covered with a wire-mesh cage. Then, 30 adult brown planthoppers (Nilaparvata lugens Stal) were released into the cage and the pot was kept in a constant-temperature chamber at 25° C.

carp and water flea = assay: Fish toxicity ranking according to Japanese regulations; parameters: species or system Cyprinus carpio L; Daphnia pulex; details: from TLm for carp and water flea
Experimental: The above ranking with symbols A, B and C were determined according to Japanese regulations relative to application of agricultural chemicals, and these symbols are defined as follows: […]
A: TLm (48 hrs.) value >10 ppm for carp and TLm (3 hrs.) value >0.5 ppm for water flea, wherein toxicity to fishes is not observed by usual application.
B: TLm (48 hrs.) value 10-0.5 ppm for carp; or TLm (48 hrs.) value >10 ppm for carp and TLm (3 hrs.) value <0.5 ppm for water flea, wherein appreciable toxicity to fishes is not observed by usual application but may be observed when applied to wide area at one time.
C: TLm (48 hrs.) value <0.5 ppm for carp, wherein toxicity to fishes is so strongly observed by usual application that both the application method and application area are strictly restricted.

[6] = test system: houseflies (Musca domestica); assay: Mortality test with houseflies by topical application method; details: 24 h; for mortality at 0.001 mg: read-out: Pesticidal effect, housefly
[7] = test system: green rice leafhoppers (Nephotettix cincticeps Uhler); assay: Mortality test with green rice leafhoppers by topical application method; details: Nephotettix cincticeps, in Oryza sativa, 24 h; for mortality at 10 ng: read-out: Pesticidal effect, green rice leafhopper
Experimental: Mortality test with green rice leafhoppers (Nephotettix cincticeps Uhler) by topical application method
Then, the insects were kept at 25° C. with access to rice plant seedlings. The insects were used in groups of 15 individuals each.

[8] = Fish toxicity test with guppies; type: in vivo, Lebistes reticulatus; details: guppy, water, guppies, 20° C., read-out: TLm (48 hrs.)
Experimental: (§1) Fish toxicity test with guppies (Lebistes reticulatus)
(§2) To 5 liters of water were added 250 mg of Sorpol SM-200 (trademark, Toho Chemical Co., Ltd.) as a surfactant and 2.5 ml of an acetone solution containing one of the test compounds in a predetermined concentration. The mixture was stirred thoroughly to prepare a test water. Ten female guppies (Lebistes reticulatus) of from 3 to 4 months of age were released into the test water which was maintained at 20° C. and the TLm (median tolerance limit, ppm) was determined.

[9] = test system: guppies (Lebistes reticulatus); assay: Fish toxicity test with guppies; type: in vivo; details: Table 1; 48 hrs.
Experimental: as §1, §2

[10] = test system: rice stem borers (Chilo suppressalis Walker); assay: Mortality test with rice stem borers by topical application method; type: in vivo; details: for mortality at 0.001 mg: read-out: Pesticidal effect, rice stem borer
Experimental: Mortality test with rice stem borers (Chilo suppressalis Walker) by topical application method
Using a microsyringe, 0.5 μl of the above solution was applied to the thoracic abdominal region of each final-instar larva of rice stem borer (Chilo suppressalis Walker). […] The test larvae were used in groups of 20 individuals each.

[11] = test system: tobacco cutworms (Prodenia litura Fabricius); assay: Mortality test with tobacco cutworms by topical application method; type: in vivo
Experimental: Mortality test with tobacco cutworms (Prodenia litura Fabricius) by topical application method
Using a microsyringe, 0.5 μl of the above solution was dripped onto the thoracic adbominal region of each of 3-instar tobacco cutworm (Prodenia litura Fabricius) larvae. […] The test larvae were used in groups of 20 individuals each.

[12] = Fish toxicity test with killifish; type: in vivo, Orizias latipes; details: water, killifish, 25±1° C., read-out: TLm (48 hrs.)
Experimental: Fish toxicity test with killifish (Orizias latipes)
An acetone solution of one of the test compounds as mentioned in Table 8 was prepared by adding said test compound to 15 ml of acetone. To 10 liters of water was added a predetermined amount of the above acetone solution and the mixture was stirred thoroughly to prepare an aqueous solution containing the test compound in a predetermined concentration. This was used as a test water. After the each test water was moderately aerated, ten killifishes (Orizias latipes) with a body weight of about 0.25 g and a body length of about 2.5 cm were released into said each test water which was maintained at 25±1° C. After 48 hours, the test fish was examined for death. The TLm (median tolerance limit, ppm) was determined.

[13] = 24 h, read-out: Pesticidal effect, tobacco cutworm

Row | SMILES | mortality at 6.5 ppm [1] [%] | mortality at 13 ppm [1] [%] | selectivity ratio [3] | LC50 at 48 h [4] [µg/mL] | LC50 [5] [µg/mL] | Ranking (carp and water flea) | mortality at 0.5 µg/female [6] [%] | mortality at 1 µg/female [6] [%] | mortality at 0.001 mg [6] [%] | mortality at 0.01 µg/female [7] [%] | mortality at 0.1 µg/female [7] [%] | mortality at 1 µg/female [7] [%] | mortality at 10 ng [7] [%] | LC50 at 48 h [8] [µg/mL] | Toxicity to fish TLm, guppy [9] [ppm] | mortality at 1 µg/larva ([10]; 24 h) [%] | mortality at 10 µg/larva ([10]; 24 h) [%] | mortality at 0.001 mg ([10]; 24 h) [%] | mortality at 0.0001 mg [11, 13] [%] | also measured
1 | CC1(C)C(C=C(Cl)Cl)C1C(=O)OCc1cccc(Oc2ccc(Br)cc2)c1 (stereo not drawn) | 10 | 100 | – | – | – | – | – | – | – | – | – | – | – | – | – | – | – | – | – | –
2 | C#CC(OC(=O)C1C(C=C(Cl)Cl)C1(C)C)c1cccc(Oc2ccc(Br)cc2)c1 (stereo not drawn) | 0 | 90 | – | – | – | – | – | – | – | – | – | – | – | – | – | – | – | – | – | –
3 | CC1(C)C(C=C(Cl)Cl)C1C(=O)OCc1cccc(Oc2ccc(Cl)cc2)c1 (stereo not drawn) [Compound (1) cis-/trans- = 20:80] | – | – | 2.5 | 2.6 (≈ 6.11 µM) | 520 (≈ 1220 µM) | B (TLm (48 hrs.) value 10-0.5 ppm for carp; or TLm (48 hrs.) value >10 ppm for carp and TLm (3 hrs.) value <0.5 ppm for water flea, wherein appreciable toxicity to fishes is not observed by usual application but may be observed when applied to wide area at one time.) | – | – | – | – | – | – | – | – | – | – | – | – | – | LC50 at 6 h [2]: > 40 µg/mL
4 | CC1(C)C(C=C(Br)Br)C1C(=O)OC(C#N)c1cccc(Oc2ccccc2)c1 (stereo not drawn) [Compound (D), Decamethrin] | – | – | – | 0.0051 (≈ 0.0101 µM) | – | C (TLm (48 hrs.) value <0.5 ppm for carp, wherein toxicity to fishes is so strongly observed by usual application that both the application method and application area are strictly restricted.) | 100 | 100 | 100 | 100 | 100 | 100 | 100 | < 0.5 | < 0.5 | 100 | 100 | 100 | 100 | –
5 | C#CC(OC(=O)C1C(C=C(Cl)Cl)C1(C)C)c1cccc(Oc2ccccc2)c1 (stereo not drawn) [Compound (F)] | – | – | – | – | – | – | 100 | 100 | 100 | 100 | 100 | 100 | 100 | < 0.5 | < 0.5 | – | – | – | – | –
6 | CC1(C)C(C=C(Cl)Cl)C1C(=O)OC(C#N)c1cccc(Oc2ccc(Cl)cc2)c1 (stereo not drawn) [Compound (G) cis-/trans- = 50:50] | – | – | 0.04 | 0.04 (≈ 0.0887 µM) | 450 (≈ 998 µM) | C (TLm (48 hrs.) value <0.5 ppm for carp, wherein toxicity to fishes is so strongly observed by usual application that both the application method and application area are strictly restricted.) | 100 | 100 | 100 | 100 | 100 | 100 | 100 | < 1 | < 1.0 | 90 | 100 | 90 | 65 | LC50 at 48 h [12]: 0.15 µg/mL (≈ 0.333 µM); mortality at 0.0001 mg ([11]; 24 h): 65%
7 | CC1(C)C(C=C(Cl)Cl)C1C(=O)OC(C#N)c1cccc(Oc2ccc(Br)cc2)c1 (stereo not drawn) [Compound (H)] | 40 | 100 | – | 0.063 (≈ 0.127 µM) | – | C (TLm (48 hrs.) value <0.5 ppm for carp, wherein toxicity to fishes is so strongly observed by usual application that both the application method and application area are strictly restricted.) | 100 | 100 | 100 | 100 | 100 | 100 | 100 | – | – | 90 | 100 | 90 | 60 | mortality at 0.0001 mg ([11]; 24 h): 60%
8 | CC(C)C(C(=O)OC(C#N)c1cccc(Oc2ccc(Cl)cc2)c1)c1ccc(Cl)cc1 (stereo not drawn) [Compound (L)] | – | – | 0.0071 | 0.032 (≈ 0.0704 µM) | 2260 (≈ 4970 µM) | C (TLm (48 hrs.) value <0.5 ppm for carp, wherein toxicity to fishes is so strongly observed by usual application that both the application method and application area are strictly restricted.) | – | – | – | – | – | – | – | – | – | – | – | – | – | mortality at 1 µg/larva ([10]; 1.0 μg/Larva, final-instar larva, 24 hours, read-out: % Mortality): 85%; mortality at 10 µg/larva ([10]; 10 μg/Larva, final-instar larva, 24 hours, read-out: % Mortality): 100%; mortality at 0.0001 mg ([11]; 0.1 μg/Larva, 3-instar larvae, 24 hours, read-out: % Mortality): 35%
